According to patent EP3811940B1, “SUBSTITUTED 4,5'-BITHIAZOLES AS INHIBITORS OF THE HUMAN DNA TOPOISOMERASE II” (Kemijski Institut, priority 2019, dated 2021):
Like-named read-outs stand apart in the source and are kept apart here.

Columns and labels:
human topo IIβ = target: T1, human topo IIβ (Homo sapiens, UniProt Q02880); experiment: kDNA decatenation assay catalysed by human topo IIβ; type: biochemical; conditions: for % Decatenated Assay 1 / % Decatenated Assay 2: % of decatenated kDNA; for % Decatenated Average: average of two assays
T1 construct: purchased Inspiralis (Norwich, UK)
Method: One U of human topo II (α or β) was incubated with 200 ng kDNA in a 30 µL reaction at 37°C for 30 minutes under the following conditions: 50 mM Tris HCl (pH 7.5), 125 mM NaCl, 10 mM MgCl2, 5 mM DTT, 0.5 mM EDTA, 0.1 mg/ml bovine serum albumin (BSA) and 1 mM ATP. Compounds 1 and 9 were serially diluted in DMSO and added to the reaction mixture before the addition of the enzyme. Etoposide was used as a control compound. Each reaction was then stopped by the addition of 30 µL chloroform/iso-amyl alcohol ([…]) and 30 µL Stop Dye (40 % sucrose (w/v), 100 mM Tris.HCl (pH 7.5), 10 mM EDTA, 0.5 µg/mL bromophenol blue), before being loaded on a 1% TAE gel run at 85 V for 90 minutes. Assays were performed at 4 concentrations of ligand: 3.9, 31.5, 125 and 500 µM. The final DMSO concentration in all reactions was 1 % (v/v).
(§1) Bands were visualized by the ethidium bromide staining for 15 minutes and destaining for subsequent 10 minutes. Gels were scanned using the documentation equipment (GeneGenius, Syngene, Cambridge, UK) and inhibition levels were calculated from band data obtained with gel scanning software (GeneTools, Syngene, Cambridge,UK). Experiment was performed in duplicates for all compounds.

human topo IIα = target: T2, human topo IIα (Homo sapiens, UniProt P11388); experiment: human topo IIα cleavage assay (linear DNA); type: biochemical
T2 construct: purchased Inspiralis (Norwich, UK)
Method: To determine if compounds act as topo II poisons, cleavage assay was performed for compounds 1 and 9.
Selected compounds were tested at four concentrations: 3.9, 31.5, 125 and 500 µM. The reaction was then incubated for additional 30 minutes with 0.2 % SDS and 0.5 µg/µL proteinase K. Subsequently the reaction was stopped by adding 30 µL of chloroform/iso-amyl alcohol ([…]) and 30 µL of Stop Dye (40 % sucrose (w/v), 100 mM Tris.HCl (pH 7.5), 10 mM EDTA, 0.5 µg/mL bromophenol blue), before sample being loaded on the 1 % TAE gel run at 80 V for 2 hours.
as §1, with “cleavage” for “inhibition”, “from the” for “from”, “by the” for “with”, “The human topo IIα cleavage assay” for “Experiment”, “collaboration with Inspiralis (Norwich, UK).” for “duplicates for all compounds.”

MCF-7 cells = experiment: MTS cytotoxicity assay, MCF-7; type: cell-based, human; conditions: Homo sapiens, interval in brackets
Text: (§2) We determined the cytotoxicity of the tested compounds on human breast cancer MCF-7 and human hepatocellular carcinoma HepG2 cancer cell lines using MTS assay. Both selected human cancer cell lines are representative and well-established systems for cell-based evaluation of potential anticancer compounds. Etoposide was again used as a positive control (PC).
(§3) In the first step we performed the initial screening of compounds 1-14 at one concentration. […] Exponentially growing cells were exposed to all compounds for 24 h and the results are represented in Figure 3A.
(§4) In vitro cytotoxicity of investigated compounds was evaluated in two human cancer cell lines: the […] cell lines. The HepG2 cells (ATCC) were cultivated at 37 °C and 5 % CO2 in MEME medium (M2414, Sigma) supplemented with 10 % FBS, 2 mM L-Glutamine, 1 % NEAA, 2.2 g/L NaHCO3, 1 mM sodium pyruvate and 100 IU/mL penicillin/ streptomycin and MCF-7 (ATCC) were cultivated in Eagle's MEM medium (M5650, Sigma), supplemented with 10 % fetal bovine serum, 2 mM glutamine, and 100 IU/mL penicillin/streptomycin. After the exposure to the tested compounds the viability of HepG2 and MCF-7 cells was determined by MTS tetrazolium reduction assay. The cells were seeded onto 96-well microplates (Nunc, TermoFisher Scientific, Waltham, MA, USA) at densities of 8000 cells per well (HepG2) and 7000 cells per well (MCF-7) in […] growth medium and incubated overnight to attach. The next day, the growth medium was replaced by the fresh complete growth medium containing appropriate concentrations of the compounds. […] Finally, the absorbance was measured at wavelength of 490 nm using a Microplate Reader (Synergy MX, BioTek, Winooski, VT, USA). […] Assay was performed at 5 concentrations of each compound; 2, 25, 50, 100 and 200 µM for compounds 1, 7 and 14 and 1, 12.5, 25, 50, 100 µM for compounds 9 and 10. […] Cell viability was determined by comparing the OD (optical density) of the wells containing the cells treated with investigated compounds with those of solvent control cells and presented as % of cell viability ± SD. Experiments were performed three times independently each time in at least three replicates. EC50 values were calculated by non-linear regression analysis using GraphPad Prism 7.0 Software. Statistical significance between treated groups and the control was determined by One-way analysis of variance and Dunnett's Multiple Comparison Test.

HepG2 cells = experiment: MTS cytotoxicity assay, HepG2; type: cell-based, human; conditions: Homo sapiens, interval in brackets
Text: as §2, §3, §4

[1] = MCF7, read-out: EC50 [µM] MCF-7 (24h), 24h exposure
[2] = MCF7, 72h exposure, read-out: EC50 [µM] MCF-7 (72h)
[3] = HepG2, read-out: EC50 [µM] HepG2 (24h), 24h exposure
[4] = HepG2, 72h exposure, read-out: EC50 [µM] HepG2 (72h)

T2 sequence (P11388 whole entry): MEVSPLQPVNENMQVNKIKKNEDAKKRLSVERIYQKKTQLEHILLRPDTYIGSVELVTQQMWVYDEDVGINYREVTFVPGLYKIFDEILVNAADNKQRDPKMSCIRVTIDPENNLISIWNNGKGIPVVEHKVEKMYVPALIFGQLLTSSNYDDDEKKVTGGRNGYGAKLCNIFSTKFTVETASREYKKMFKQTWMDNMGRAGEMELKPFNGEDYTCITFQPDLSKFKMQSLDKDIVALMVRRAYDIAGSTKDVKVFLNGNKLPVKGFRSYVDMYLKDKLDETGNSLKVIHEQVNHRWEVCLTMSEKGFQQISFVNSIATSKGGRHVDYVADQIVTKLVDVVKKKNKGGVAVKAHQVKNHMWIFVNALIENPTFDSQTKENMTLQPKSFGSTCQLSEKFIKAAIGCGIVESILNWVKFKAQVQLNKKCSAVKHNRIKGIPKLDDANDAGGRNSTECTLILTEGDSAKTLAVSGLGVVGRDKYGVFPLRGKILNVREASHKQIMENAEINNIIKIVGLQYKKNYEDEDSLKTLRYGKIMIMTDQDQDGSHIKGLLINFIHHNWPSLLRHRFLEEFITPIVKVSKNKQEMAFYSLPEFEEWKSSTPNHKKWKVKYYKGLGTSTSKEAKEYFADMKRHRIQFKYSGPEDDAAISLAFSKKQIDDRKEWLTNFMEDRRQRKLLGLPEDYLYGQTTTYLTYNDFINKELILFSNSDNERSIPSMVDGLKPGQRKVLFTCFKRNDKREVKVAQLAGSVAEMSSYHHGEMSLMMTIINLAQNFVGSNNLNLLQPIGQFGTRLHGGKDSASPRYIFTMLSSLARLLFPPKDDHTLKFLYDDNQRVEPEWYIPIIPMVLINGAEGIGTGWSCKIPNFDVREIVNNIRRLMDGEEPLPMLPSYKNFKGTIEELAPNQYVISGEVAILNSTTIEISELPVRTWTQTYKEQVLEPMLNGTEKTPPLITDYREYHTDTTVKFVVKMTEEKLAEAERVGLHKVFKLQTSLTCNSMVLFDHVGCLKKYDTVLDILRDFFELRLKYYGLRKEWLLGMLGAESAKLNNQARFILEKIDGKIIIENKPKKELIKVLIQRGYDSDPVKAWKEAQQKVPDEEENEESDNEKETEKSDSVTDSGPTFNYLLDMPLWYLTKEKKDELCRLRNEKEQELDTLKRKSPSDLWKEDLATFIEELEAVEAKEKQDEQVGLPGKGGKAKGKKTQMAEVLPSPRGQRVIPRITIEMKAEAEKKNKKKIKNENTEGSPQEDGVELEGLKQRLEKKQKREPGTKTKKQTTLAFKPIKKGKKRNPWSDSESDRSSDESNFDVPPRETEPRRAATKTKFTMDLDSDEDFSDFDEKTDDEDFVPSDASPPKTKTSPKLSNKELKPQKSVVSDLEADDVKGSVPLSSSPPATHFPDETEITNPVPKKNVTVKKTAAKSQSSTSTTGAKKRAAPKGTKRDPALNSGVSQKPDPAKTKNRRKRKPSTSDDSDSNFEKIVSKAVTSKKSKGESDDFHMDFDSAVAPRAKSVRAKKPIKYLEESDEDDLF
T1 sequence (Q02880 whole entry): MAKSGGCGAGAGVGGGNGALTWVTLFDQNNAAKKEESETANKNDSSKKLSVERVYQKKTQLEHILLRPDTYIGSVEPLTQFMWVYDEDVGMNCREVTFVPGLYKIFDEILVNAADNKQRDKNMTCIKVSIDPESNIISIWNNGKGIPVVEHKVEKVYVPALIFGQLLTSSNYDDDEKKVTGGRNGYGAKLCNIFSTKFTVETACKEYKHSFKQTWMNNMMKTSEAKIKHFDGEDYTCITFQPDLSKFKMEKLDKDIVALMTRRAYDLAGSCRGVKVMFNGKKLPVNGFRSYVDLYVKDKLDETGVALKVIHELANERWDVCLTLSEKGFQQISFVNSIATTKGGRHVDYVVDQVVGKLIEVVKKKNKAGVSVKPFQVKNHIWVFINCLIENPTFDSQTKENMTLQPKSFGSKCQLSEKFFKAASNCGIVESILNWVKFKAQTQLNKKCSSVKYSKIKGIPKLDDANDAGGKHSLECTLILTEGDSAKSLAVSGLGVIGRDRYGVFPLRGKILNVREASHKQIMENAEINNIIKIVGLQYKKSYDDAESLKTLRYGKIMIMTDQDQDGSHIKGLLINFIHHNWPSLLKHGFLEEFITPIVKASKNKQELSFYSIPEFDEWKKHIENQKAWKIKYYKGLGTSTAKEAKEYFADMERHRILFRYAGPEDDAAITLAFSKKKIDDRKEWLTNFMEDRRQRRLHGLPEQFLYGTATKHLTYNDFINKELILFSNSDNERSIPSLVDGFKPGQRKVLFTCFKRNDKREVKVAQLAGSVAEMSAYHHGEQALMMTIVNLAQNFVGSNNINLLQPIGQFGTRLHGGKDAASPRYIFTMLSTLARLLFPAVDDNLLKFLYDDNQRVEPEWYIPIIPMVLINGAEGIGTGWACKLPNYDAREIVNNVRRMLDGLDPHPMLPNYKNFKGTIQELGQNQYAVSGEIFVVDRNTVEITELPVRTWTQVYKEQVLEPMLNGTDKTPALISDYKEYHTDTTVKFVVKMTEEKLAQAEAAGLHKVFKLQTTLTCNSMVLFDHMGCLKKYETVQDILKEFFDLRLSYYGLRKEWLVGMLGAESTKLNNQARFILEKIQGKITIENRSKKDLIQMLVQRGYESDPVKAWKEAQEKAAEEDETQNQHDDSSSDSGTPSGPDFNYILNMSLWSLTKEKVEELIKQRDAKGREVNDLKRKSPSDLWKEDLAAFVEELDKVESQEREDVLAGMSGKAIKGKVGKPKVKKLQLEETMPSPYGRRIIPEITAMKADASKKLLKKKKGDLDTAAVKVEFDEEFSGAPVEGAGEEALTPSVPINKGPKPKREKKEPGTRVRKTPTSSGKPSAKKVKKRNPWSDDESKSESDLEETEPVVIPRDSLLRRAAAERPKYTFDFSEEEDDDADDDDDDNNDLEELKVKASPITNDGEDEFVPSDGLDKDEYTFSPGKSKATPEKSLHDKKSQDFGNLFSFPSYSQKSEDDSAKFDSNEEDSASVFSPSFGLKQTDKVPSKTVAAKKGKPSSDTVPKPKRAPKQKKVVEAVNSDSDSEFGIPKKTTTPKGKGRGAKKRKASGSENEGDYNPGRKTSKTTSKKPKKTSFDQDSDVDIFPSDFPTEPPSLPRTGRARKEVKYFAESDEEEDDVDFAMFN

| % Decatenated Assay 1 (human topo IIβ; 3.9 µM) [%] | % Decatenated Assay 2 (human topo IIβ; 3.9 µM) [%] | % Decatenated Assay 1 (human topo IIβ; 31.5 µM) [%] | % Decatenated Assay 2 (human topo IIβ; 31.5 µM) [%] | % Decatenated Average (human topo IIβ; 31.5 µM) [%] | % Decatenated Assay 1 (human topo IIβ; 125 µM) [%] | % Decatenated Assay 2 (human topo IIβ; 125 µM) [%] | % Decatenated Average (human topo IIβ; 125 µM) [%] | % Decatenated Assay 1 (human topo IIβ; 500 µM) [%] | % Decatenated Assay 2 (human topo IIβ; 500 µM) [%] | % Decatenated Average (human topo IIβ; 500 µM) [%] | % Linear Average (human topo IIα; 3.9 µM) [%] | % Linear (human topo IIα; 3.9 µM, % Linear) [%] | % Linear (human topo IIα; 3.9 µM, first % Linear column) [%] | % Linear Average (human topo IIα; 31.5 µM) [%] | % Linear (human topo IIα; 31.5 µM, % Linear) [%] | % Linear (human topo IIα; 31.5 µM, first % Linear column) [%] | % Linear Average (human topo IIα; 125 µM) [%] | % Linear (human topo IIα; 125 µM, % Linear) [%] | % Linear (human topo IIα; 125 µM, first % Linear column) [%] | SMILES | further results |
| --- | --- | --- | --- | --- | --- | --- | --- | --- | --- | --- | --- | --- | --- | --- | --- | --- | --- | --- | --- | --- | --- |
| 87.3 | 95.5 | 78.6 | 79.7 | 79.2 | 0 | 0 | 0 | 0 | 0 | 0 | 6.81 | 5.57 | 8.05 | 7.04 | 7.77 | 6.32 | 2.94 | 2.85 | 3.02 | Cc1nc(N)sc1-c1csc(Nc2ccc(C(F)(F)F)cc2)n1 [Compound 1, 4'-methyl-N2-(4-(trifluoromethyl)phenyl)-[4,5'-bithiazole]-2,2'-diamine] | % Decatenated Average (human topo IIβ; 3.9 µM): 91.3%; inhibition at 31.5 µM (human topo IIβ; 31.5 µM): 20.8%; % of inhibition of decatenation (human topo IIβ; 125 µM): fully inhibited; % of inhibition of decatenation (human topo IIβ; 500 µM): fully inhibited; % Linear Average (human topo IIα; 500 µM): 2.72%; % Linear (human topo IIα; 500 µM, % Linear): 2.98%; % Linear (human topo IIα; 500 µM, first % Linear column): 2.45%; EC50 (MCF-7 cells; [1]): 65 µM; EC50 (MCF-7 cells; [2]): 59.5 µM; EC50 (HepG2 cells; [3]): 72.8 µM; EC50 (HepG2 cells; [4]): 46.8 µM |
| 87.0 | 75.6 | 80.1 | 73.3 | 76.7 | 30.5 | 21.7 | 26.1 | 17.5 | 5.3 | 11.4 | 6.26 | 7.03 | 5.49 | 7.26 | 6.75 | 7.77 | 4.72 | 4.60 | 4.84 | CC(=O)Nc1ccc(Nc2nc(-c3sc(NC(C)=O)nc3C)cs2)cc1 [Compound 9, N-(4-((2'-acetamido-4'-methyl-[4,5'-bithiazol]-2-yl)amino)phenyl)acetamide] | % Decatenated Average (human topo IIβ; 3.9 µM): 81.3%; inhibition at 125 µM (human topo IIβ; 125 µM): 73.9%; inhibition at 500 µM (human topo IIβ; 500 µM): 88.6%; % Linear Average (human topo IIα; 500 µM): 2.60%; % Linear (human topo IIα; 500 µM, % Linear): 2.25%; % Linear (human topo IIα; 500 µM, first % Linear column): 2.95%; EC50 (MCF-7 cells; [1]): 15 µM; EC50 (MCF-7 cells; [2]): 13.8 µM; EC50 (HepG2 cells; [3]): 73.5 µM; EC50 (HepG2 cells; [4]): 23.5 µM |
| 100.0 | 100.0 | 94.0 | 92.8 | 93.4 | 24.6 | 23.1 | 23.9 | 150 | 14.4 | 14.7 | 17.32 | 11.88 | 22.76 | 34.63 | 36.26 | 33.00 | 41.13 | 36.91 | 45.35 | COc1cc([C@@H]2c3cc4c(cc3[C@@H](O[C@@H]3O[C@@H]5CO[C@@H](C)O[C@H]5[C@H](O)[C@H]3O)[C@H]3COC(=O)[C@H]23)OCO4)cc(OC)c1O [Etoposide, etoposide, reference compound] | % Linear Average (human topo IIα; 500 µM): 45.71%; % Linear (human topo IIα; 500 µM, % Linear): 48.40%; % Linear (human topo IIα; 500 µM, first % Linear column): 43.03%; amount of linear DNA (poison activity) (human topo IIα; titration 3.9, 31.5, 125 and 500 µM, result in words): increased amount of linear DNA; EC50 (MCF-7 cells; [1]): 320 µM; EC50 (MCF-7 cells; [2]): 12.6 µM; EC50 (HepG2 cells; [3]): 196 µM; EC50 (HepG2 cells; [4]): 25.8 µM |
